pIC50: −log10 of the molar value. Where two headings read alike, the source gives them in different places.
How the values were obtained:
HCT 116 cells = test: Cell growth assay (CellTiter-Glo 2.0), HCT 116 MSI-H cell line; details: Homo sapiens, HCT-116, 120 h, read-out: Cell Growth Inhibition GI50 HCT-116
[1] = target: hWRN(519-1227)_C-H3CV-GFP-10His (Homo sapiens, UniProt Q14191); test: Helicase Assay for WRN Inhibition (ATP-dependent, fluorescence based)
Method: Effects of compounds on WRN helicase activity were assessed with the Helicase Assay for WRN Inhibition. This is an ATP-dependent (inclusion of ATP is important and is required for this assay) fluorescence based assay using recombinant WRN and a fluorogenic DNA substrate.
WRN activity was normalized to signal from wells without WRN protein (background, 0% activity) and wells with protein treated only with DMSO (positive control, 10000 activity). For each compound the potency of inhibition (IC50) was determiined using Graphpad Prism.

WRN C727 = target: T1, WRN C727 (Homo sapiens, UniProt Q14191); test: Target engagement, in vitro (lysate), OCI-AML2; format: binding; details: read-out: OCI-AML2 WRN C727 TE50 in vitro (lysate)
T1 construct: endogenous in cells; host or cells: OCI-AML2
T1 sequence (Q14191 whole entry): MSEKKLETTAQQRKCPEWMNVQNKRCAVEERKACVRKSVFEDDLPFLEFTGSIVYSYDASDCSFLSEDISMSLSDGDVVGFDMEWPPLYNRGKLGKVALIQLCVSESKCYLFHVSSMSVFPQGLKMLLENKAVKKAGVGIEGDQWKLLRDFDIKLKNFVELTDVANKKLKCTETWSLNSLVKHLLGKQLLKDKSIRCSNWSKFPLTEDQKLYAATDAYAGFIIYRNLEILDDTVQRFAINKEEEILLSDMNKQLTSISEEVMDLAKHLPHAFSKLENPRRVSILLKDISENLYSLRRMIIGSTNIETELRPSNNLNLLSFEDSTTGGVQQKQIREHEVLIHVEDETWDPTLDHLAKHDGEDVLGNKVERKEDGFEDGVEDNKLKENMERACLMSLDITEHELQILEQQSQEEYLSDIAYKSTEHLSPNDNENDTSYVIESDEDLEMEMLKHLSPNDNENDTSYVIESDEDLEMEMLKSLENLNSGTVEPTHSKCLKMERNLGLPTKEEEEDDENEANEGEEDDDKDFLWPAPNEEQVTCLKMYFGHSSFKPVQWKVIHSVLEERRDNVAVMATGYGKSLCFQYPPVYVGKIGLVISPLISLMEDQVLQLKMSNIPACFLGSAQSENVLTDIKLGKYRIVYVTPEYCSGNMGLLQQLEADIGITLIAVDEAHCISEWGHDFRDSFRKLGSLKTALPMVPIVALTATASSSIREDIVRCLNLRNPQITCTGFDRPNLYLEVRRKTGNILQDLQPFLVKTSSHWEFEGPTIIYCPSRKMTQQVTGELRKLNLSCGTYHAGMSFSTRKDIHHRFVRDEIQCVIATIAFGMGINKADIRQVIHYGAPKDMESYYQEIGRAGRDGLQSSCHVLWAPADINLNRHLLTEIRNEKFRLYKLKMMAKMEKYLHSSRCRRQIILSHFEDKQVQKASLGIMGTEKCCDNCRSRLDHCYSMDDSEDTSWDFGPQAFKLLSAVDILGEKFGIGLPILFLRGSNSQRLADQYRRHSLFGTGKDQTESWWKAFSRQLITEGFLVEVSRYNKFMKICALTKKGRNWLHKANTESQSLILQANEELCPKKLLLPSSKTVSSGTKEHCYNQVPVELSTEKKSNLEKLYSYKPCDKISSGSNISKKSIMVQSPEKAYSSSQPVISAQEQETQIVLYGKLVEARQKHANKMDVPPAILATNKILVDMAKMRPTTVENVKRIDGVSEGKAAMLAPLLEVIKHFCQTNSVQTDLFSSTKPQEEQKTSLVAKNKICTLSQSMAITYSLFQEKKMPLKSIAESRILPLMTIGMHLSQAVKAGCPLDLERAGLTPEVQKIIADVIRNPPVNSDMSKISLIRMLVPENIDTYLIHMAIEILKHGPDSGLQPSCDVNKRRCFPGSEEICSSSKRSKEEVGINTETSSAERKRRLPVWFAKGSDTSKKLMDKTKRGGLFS
Outline: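 OCI-AML2 intact cells or lysates dosed with compound, then a cysteine-reactive probe; after trypsin digestion, probe-labelled peptides were streptavidin-enriched and quantified by nano-LC parallel reaction monitoring MS. Engagement (%) relative to DMSO controls.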

SW480 cells = test: Cell growth assay (CellTiter-Glo 2.0), SW480 MSS cell line; details: Homo sapiens, SW480, 120 h, read-out: Cell Growth Inhibition GI50 SW480
Method: The effects of compound on cellular viability were determined using the CellTiter-Glo® 2.0 Luminescent Cell Viability Assay (Promega, Madison, WI).
SW480 cells were seeded at 1,000 cells per well in Eagle's Minimum Essential Medium (EMEM) with 10% FBS. Both cell lines were seeded in a volume of 50 μL medium per well. […] The concentration range was adjusted as needed for compounds of different potencies. The cells treated with compounds were incubated for 5 days at 37° C. in 5% CO2. […] The plate was then read on a Clariostar plate reader (BMG Labtech, Cary, NC) in luminescence mode. The previously measured baseline cell viability was subtracted from the luminescence value of each well, and cell viability (% of DMSO) was plotted as a function of log compound concentration. The EC50 was then calculated for each compound using Dotmatics Software (San Diego, CA).

[2] = WRN Helicase IC50, 30 min preincubation with ATP, 30 min reaction

Chain of hWRN(519-1227)_C-H3CV-GFP-10His (Q14191 519-1227): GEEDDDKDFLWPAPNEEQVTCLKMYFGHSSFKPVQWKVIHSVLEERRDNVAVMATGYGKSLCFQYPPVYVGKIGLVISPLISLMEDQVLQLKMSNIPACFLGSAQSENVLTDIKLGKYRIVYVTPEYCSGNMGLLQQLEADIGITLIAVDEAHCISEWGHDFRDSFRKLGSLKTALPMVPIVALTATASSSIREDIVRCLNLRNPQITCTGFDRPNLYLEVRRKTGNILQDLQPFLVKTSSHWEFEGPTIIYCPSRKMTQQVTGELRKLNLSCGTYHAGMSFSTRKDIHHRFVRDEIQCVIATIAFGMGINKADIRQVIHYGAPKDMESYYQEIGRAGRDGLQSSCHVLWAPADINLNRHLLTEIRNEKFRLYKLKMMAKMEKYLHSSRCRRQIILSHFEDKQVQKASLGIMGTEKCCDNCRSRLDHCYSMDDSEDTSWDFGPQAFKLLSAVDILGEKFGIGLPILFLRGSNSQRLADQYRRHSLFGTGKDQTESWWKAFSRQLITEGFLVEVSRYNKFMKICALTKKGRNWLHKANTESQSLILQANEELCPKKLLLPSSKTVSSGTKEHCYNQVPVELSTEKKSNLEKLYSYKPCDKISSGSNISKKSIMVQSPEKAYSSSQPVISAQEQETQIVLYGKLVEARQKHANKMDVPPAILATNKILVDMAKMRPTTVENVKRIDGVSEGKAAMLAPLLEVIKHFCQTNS

| GI50 (HCT 116 cells) [µM] | pIC50 [1, 2] | pIC50 (WRN C727) | GI50 (SW480 cells) [µM] | pIC50 [1] | Structure (SMILES) |
| --- | --- | --- | --- | --- | --- |
| 6 | 5.17 | < 4.00 | 7.4 | – | CS(=O)(=O)/C=C/CNC(=O)c1cnc(C2CCCC2)nc1Oc1cccc(Cl)c1 [Example 117, (E)-4-(3-chlorophenoxy)-2-cyclopentyl-N-(3-(methylsulfonyl)allyl)pyrimidine-5-carboxamide] |
| > 10 | 4.85 | 5.16 | > 10 | – | C[C@@H](/C=C/S(C)(=O)=O)NC(=O)c1cnc(C2CCCC2)nc1Oc1ccc(C#N)cc1 [Example 124, (S,E)-4-(4-cyanophenoxy)-2-cyclopentyl-N-(4-(methylsulfonyl)but-3-en-2-yl)pyrimidine-5-carboxamide] |
| 3.1 | 4.90 | 4.28 | > 10 | – | C[C@@H](/C=C/S(C)(=O)=O)NC(=O)c1cnc(C2CCCC2)nc1Oc1cccnc1 [Example 125, (S,E)-2-cyclopentyl-N-(4-(methylsulfonyl)but-3-en-2-yl)-4-(pyridin-3-yloxy)pyrimidine-5-carboxamide] |
| 2.5 | 5.23 | 4.60 | 4.2 | – | C[C@@H](/C=C/S(C)(=O)=O)NC(=O)c1cnc(C2CCCC2)nc1OC1CCCCCC1 [Example 128, (S,E)-4-(cycloheptyloxy)-2-cyclopentyl-N-(4-(methylsulfonyl)but-3-en-2-yl)pyrimidine-5-carboxamide] |
| 5.1 | 4.96 | 4.73 | > 10 | – | C[C@@H](/C=C/S(C)(=O)=O)NC(=O)c1cnc(C2CCCC2)nc1Oc1cccc(O)c1 [Example 136, (S,E)-2-cyclopentyl-4-(3-hydroxyphenoxy)-N-(4-(methylsulfonyl)but-3-en-2-yl)pyrimidine-5-carboxamide] |
| 0.98 | 5.47 | 5.00 | > 10 | – | C[C@@H](/C=C/S(C)(=O)=O)NC(=O)c1cnc(C2CCCC2)nc1Oc1ccccc1O [Example 137, (S,E)-2-cyclopentyl-4-(2-hydroxyphenoxy)-N-(4-(methylsulfonyl)but-3-en-2-yl)pyrimidine-5-carboxamide] |
| 1.1 | 5.40 | 4.82 | > 10 | – | C[C@@H](/C=C/S(C)(=O)=O)NC(=O)c1cnc(C(C)(C)C)nc1O[C@@H]1C[C@@H]2C[C@@H]2C1 [Example 157, 4-[[(1S,5R)-3-bicyclo[3.1.0]hexanyl]oxy]-2-tert-butyl-N—[(E,1S)-1-methyl-3-methylsulfonyl-allyl]pyrimidine-5-carboxamide] |
| 0.15 | 6.05 | 5.22 | 3.4 | – | CC(C)(C)c1ncc(C(=O)N[C@H](/C=C/S(C)(=O)=O)C2CC2)c(O[C@H]2C[C@@H]3C[C@@H]3C2)n1 [Example 160, 4-(((1R,3s,5S)-bicyclo[3.1.0]hexan-3-yl)oxy)-2-(tert-butyl)-N—((S,E)-1-cyclopropyl-3-(methylsulfonyl)allyl)pyrimidine-5-carboxamide] |
| 2.7 | 5.39 | 4.65 | > 10 | – | C[C@@H](/C=C/S(C)(=O)=O)NC(=O)c1cnc(OC2CCCC2)nc1Oc1ccccc1 [Example 165, (S,E)-2-(cyclopentyloxy)-N-(4-(methylsulfonyl)but-3-en-2-yl)-4-phenoxypyrimidine-5-carboxamide] |
| 1.6 | 5.36 | 5.03 | 17 | – | C[C@@H](/C=C/S(C)(=O)=O)NC(=O)c1cnc(N2CCCC2)nc1Oc1ccccc1 [Example 168, (S,E)-N-(4-(methylsulfonyl)but-3-en-2-yl)-4-phenoxy-2-(pyrrolidin-1-yl)pyrimidine-5-carboxamide] |
| 0.434 | 5.93 | 5.35 | 8.1 | – | C[C@@H]1CC[C@H](C)N1c1ncc(C(=O)N[C@@H](C)/C=C/S(C)(=O)=O)c(Oc2ccccc2)n1 [Example 171, 2-((2R,5S)-2,5-dimethylpyrrolidin-1-yl)-N—((S,E)-4-(methylsulfonyl)but-3-en-2-yl)-4-phenoxypyrimidine-5-carboxamide] |
| 2.2 | 5.17 | 4.95 | 11 | – | C[C@@H](/C=C/S(C)(=O)=O)NC(=O)c1cnc(N2CCCC2(C)C)nc1Oc1ccccc1 [Example 174, (S,E)-2-(2,2-dimethylpyrrolidin-1-yl)-N-(4-(methylsulfonyl)but-3-en-2-yl)-4-phenoxypyrimidine-5-carboxamide] |
| 2.2 | 5.17 | 4.70 | 12 | – | C[C@@H](/C=C/S(C)(=O)=O)NC(=O)c1cnc(N2CCC[C@@H]2C)nc1Oc1ccccc1 [Example 175, 2-((S)-2-methylpyrrolidin-1-yl)-N—((S,E)-4-(methylsulfonyl)but-3-en-2-yl)-4-phenoxypyrimidine-5-carboxamide] |
| 0.44 | 5.80 | 5.78 | 13 | – | C[C@@H]1CCCN1c1ncc(C(=O)N[C@@H](C)/C=C/S(C)(=O)=O)c(Oc2ccccc2)n1 [Example 176, 2-((R)-2-methylpyrrolidin-1-yl)-N—((S,E)-4-(methylsulfonyl)but-3-en-2-yl)-4-phenoxypyrimidine-5-carboxamide] |
| 0.0884 | 6.06 | 4.56 | 17 | – | CS(=O)(=O)/C=C/[C@@H](NC(=O)c1cnc(N2CCC2)nc1Oc1ccccc1)C1CC1 [Example 181, (S,E)-2-(azetidin-1-yl)-N-(1-cyclopropyl-3-(methylsulfonyl)allyl)-4-phenoxypyrimidine-5-carboxamide] |
| 0.108 | 5.96 | 5.31 | 19 | – | CS(=O)(=O)/C=C/[C@@H](NC(=O)c1cnc(N2CC(F)C2)nc1Oc1ccccc1)C1CC1 [Example 182, (S,E)-N-(1-cyclopropyl-3-(methylsulfonyl)allyl)-2-(3-fluoroazetidin-1-yl)-4-phenoxypyrimidine-5-carboxamide] |
| 0.191 | 5.62 | 5.89 | 3.1 | – | CN(CC(F)(F)F)c1ncc(C(=O)N[C@H](/C=C/S(C)(=O)=O)C2CC2)c(Oc2ccccc2)n1 [Example 184, (S,E)-N-(1-cyclopropyl-3-(methylsulfonyl)allyl)-2-(methyl(2,2,2-trifluoroethyl)amino)-4-phenoxypyrimidine-5-carboxamide] |
| 0.0274 | 6.62 | 5.76 | 5.4 | – | CCN(C)c1ncc(C(=O)N[C@H](/C=C/S(C)(=O)=O)C2CC2)c(Oc2ccccc2)n1 [Example 185, (S,E)-N-(1-cyclopropyl-3-(methylsulfonyl)allyl)-2-(ethyl(methyl)amino)-4-phenoxypyrimidine-5-carboxamide] |
| 0.0195 | 6.70 | 6.38 | 3.3 | – | CC(C)N(C)c1ncc(C(=O)N[C@H](/C=C/S(C)(=O)=O)C2CC2)c(Oc2ccccc2)n1 [Example 186, (S,E)-N-(1-cyclopropyl-3-(methylsulfonyl)allyl)-2-(isopropyl(methyl)amino)-4-phenoxypyrimidine-5-carboxamide] |
| 0.53 | – | 6.16 | 5.4 | 6.51 | CC(=O)C=C1CN(C(=O)c2cnc(C(C)(C)C)nc2Oc2ccccc2)C1 [Example 190, 1-(1-(2-(tert-butyl)-4-phenoxypyrimidine-5-carbonyl)azetidin-3-ylidene)propan-2-one] |
| 0.26 | – | 5.66 | 7.4 | 6.04 | COC(=O)C=C1CN(C(=O)c2cnc(C(C)(C)C)nc2Oc2ccccc2)C1 [Example 191, methyl 2-(1-(2-(tert-butyl)-4-phenoxypyrimidine-5-carbonyl)azetidin-3-ylidene)acetate] |
| 0.709 | 5.77 | 5.20 | 6.19 | – | C[C@@H](/C=C/S(C)(=O)=O)NC(=O)c1cnc(C2CCCC2)nc1OC1CCCC1 [Example 197, (S,E)-2-cyclopentyl-4-(cyclopentyloxy)-N-(4-(methylsulfonyl)but-3-en-2-yl)pyrimidine-5-carboxamide] |
| 3.6 | 5.35 | 4.66 | > 10 | – | C[C@@H](/C=C/S(C)(=O)=O)NC(=O)c1cnc(C2=CCCC2)cc1Oc1ccccc1 [Example 200, (S,E)-6-(cyclopent-1-en-1-yl)-N-(4-(methylsulfonyl)but-3-en-2-yl)-4-phenoxynicotinamide] |

| Structure (SMILES) | GI50 (HCT 116 cells) [µM] | pIC50 [1, 2] | pIC50 (WRN C727) | GI50 (SW480 cells) [µM] | pIC50 [1] |
| --- | --- | --- | --- | --- | --- |
| C[C@@H](/C=C/S(C)(=O)=O)NC(=O)c1cnc(C2CCCC2)nc1OC1CCC1 [Example 127, (S,E)-4-cyclobutoxy-2-cyclopentyl-N-(4-(methylsulfonyl)but-3-en-2-yl)pyrimidine-5-carboxamide] | 1.3 | 5.37 | 5.14 | 5.3 | – |
| C[C@@H](/C=C/S(C)(=O)=O)NC(=O)c1cnc(N2C3CCC2CC3)nc1Oc1ccccc1 [Example 166, (S,E)-2-(7-azabicyclo[2.2.1]heptan-7-yl)-N-(4-(methylsulfonyl)but-3-en-2-yl)-4-phenoxypyrimidine-5-carboxamide] | 0.69 | 5.44 | 5.05 | > 10 | – |

From patent publication US20250188040A1, “PHARMACEUTICAL COMPOSITIONS COMPRISING WRN HELICASE INHIBITORS” (Vividion Therapeutics, Inc., priority 2022, published 2025)
